Where two headings read alike, the source gives them in different places. Values belong to the molecule of their own block, whether it stands above or below them.
Key:
[1] = test system: Saa3 expression in mouse primary osteoblasts; test: Saa3 mRNA in primary differentiated mouse calvaria osteoblasts; assay type: cell-based; conditions: 25 nmol/L, 24 hours
[2] = test system: patient-derived AML cells; test: PDX in NSG mice, combination therapy; assay type: in vivo; conditions: day 22 after initiating therapy
5-HT1B receptor (HTR1B) = 5-HT1B receptor (HTR1B) (Homo sapiens, UniProt P28222); test: GloSensor Gi/o-mediated cAMP inhibition assay in transfected HEK293T cells; assay type: cell-based
5-HT1B receptor (HTR1B), sequence (P28222 whole entry): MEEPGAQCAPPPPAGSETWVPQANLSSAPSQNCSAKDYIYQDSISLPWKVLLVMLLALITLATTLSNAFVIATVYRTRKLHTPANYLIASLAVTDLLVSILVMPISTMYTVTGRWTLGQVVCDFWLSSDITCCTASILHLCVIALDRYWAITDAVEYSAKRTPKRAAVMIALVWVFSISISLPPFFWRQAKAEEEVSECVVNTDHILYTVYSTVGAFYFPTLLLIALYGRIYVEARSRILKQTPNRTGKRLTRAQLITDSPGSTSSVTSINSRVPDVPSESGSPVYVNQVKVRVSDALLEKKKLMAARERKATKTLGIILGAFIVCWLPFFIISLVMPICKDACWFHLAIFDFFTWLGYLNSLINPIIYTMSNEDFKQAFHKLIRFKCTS

[3] = test system: leukemic blasts (hCD45+ hCD33+); test: Kyn injection in low AML burden PDX mice; assay type: in vivo, NSGS mice; conditions: Kyn 20mg/kg for 1 week
murine HTR1B receptor = murine HTR1B receptor (Mus musculus, UniProt P28334); test: [3H]-Kyn binding competition, Htr1b-overexpressing HEK293T membranes; conditions: SB9 at ∼90 μmol/L, equal to the concentration administered in vivo
murine HTR1B receptor, sequence (P28334 whole entry): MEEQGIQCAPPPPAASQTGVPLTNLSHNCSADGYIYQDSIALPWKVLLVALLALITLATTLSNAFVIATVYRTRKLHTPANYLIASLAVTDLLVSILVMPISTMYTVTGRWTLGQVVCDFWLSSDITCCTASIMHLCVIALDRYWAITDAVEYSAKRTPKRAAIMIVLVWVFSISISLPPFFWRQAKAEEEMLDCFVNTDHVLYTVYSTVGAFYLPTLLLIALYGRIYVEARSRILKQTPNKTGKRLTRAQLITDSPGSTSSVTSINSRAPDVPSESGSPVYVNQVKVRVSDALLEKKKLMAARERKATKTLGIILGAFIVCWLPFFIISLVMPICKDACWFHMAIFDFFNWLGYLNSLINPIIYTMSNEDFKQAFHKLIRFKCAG

MLL/AF9 AML cells = assay type: in vivo, mouse
[4] = test system: Cyclins D1, D2, and E1 (targets of serotonin-HTR1B signaling); test: Bone; assay type: in vivo, mouse; conditions: SB9-treated mice
mouse HTR1B = mouse HTR1B (Mus musculus, UniProt P28334); conditions: Fig. S1M
mouse HTR1B, sequence (P28334 whole entry): as above

[5] = test system: Kyn/Trp ratio (indicator of IDO1 activity); test: Serum Kyn and Trp levels; assay type: in vivo, mouse
[6] = Systemic toxicity of epacadostat diet in WT mice; assay type: in vivo, mouse; conditions: epacadostat ad libitum diet 0.8 g/kg
[7] = test system: patient-derived AML cells; test: Patient-derived AML xenograft; assay type: in vivo, NSGS mice; conditions: epacadostat 300 mg/kg daily gavage
Ido1 = test: CRISPR/Cas9-mediated Ido1 targeting of primary murine MLL/AF9 cells; assay type: cell-based, mouse; conditions: Ido1 exon 3
[8] = test system: IDO1 expression in OCI-AML3 cells; test: IDO1 mRNA in human AML/MDS cell lines exposed to recombinant proteins; assay type: cell-based
[9] = test system: Ido1 expression in WEHI-3B cells; test: Ido1 mRNA in WEHI-3B cells exposed to recombinant SAA; assay type: cell-based, mouse; conditions: exposed overnight
THP-1 and OCI-AML3 cells = test: Proliferation of human AML cell lines exposed to SAA1; assay type: cell-based; conditions: SAA1 1 μg/mL, 24–72 hours, versus vehicle
[10] = test system: lineage-depleted AML and MDS BM-MNCs; assay type: cell-based, human; conditions: SAA1 5 μg/mL, 24 hours
[11] = test system: total human BM cells isolated from PDX mice; test: Ex vivo human BM cells isolated from PDX mice; assay type: cell-based; conditions: SAA1 1 μg/mL, 24 hours
[12] = test system: leukemic blasts (hCD45+CD33+); assay type: in vivo, NSGS mice
[13] = test system: AHR target genes (CYP1A1, CYP1A2); test: AHR target gene mRNA in human AML and MDS cells exposed to SAA1; assay type: cell-based; conditions: SAA1 1µg/ml o/n
WEHI-3B cells = test: Proliferation of mouse AML cell line exposed to SAA3; assay type: cell-based; conditions: SAA3 1 μg/mL, 24–72 hours, versus vehicle
[14] = SAA1 i.v., 2- and 8-day treatments

Molecule: NCCc1c[nH]c2ccc(O)cc12 [5-HT, 5-hydroxytryptamine, reference compound]
Saa3 expression in mouse osteoblasts (Htr1b+/+) [1]: had no effect

Molecule: Nc1ccn([C@@H]2O[C@H](CO)[C@@H](O)[C@@H]2O)c(=O)n1 [Ara-C, 1-β-D-arabinofuranosylcytosine]
effect on leukemic burden in SP relative to BM [2]: more sustained in the SP than in BM

mode of action on Gi/o-mediated cAMP production through HTR1B (5-HT1B receptor (HTR1B)): partial agonist | EC50 (5-HT1B receptor (HTR1B); EC50 (nmol/L), cAMP Gi agonist, human HTR1B): ~772 nM
Molecule: Nc1ccccc1C(=O)CC(N)C(=O)O (stereo not drawn) [Kyn, kynurenine]
Saa3 expression in Htr1b−/− primary osteoblasts [1]: failed to upregulate Saa3 expression | Saa3 expression in mouse osteoblasts (Htr1b+/+) [1]: potently upregulated Saa3 expression | AML burden in BM and SP [3]: AML burden increased in BM and SP | proliferative capacity of the leukemic blasts [3]: increases | serum SAA3 ([3]; low AML burden PDX mice): increases serum SAA3

Molecule: Cc1nc(-c2ccc(-c3ccc(C(=O)N4CCc5cc6c(cc54)C4(CCN(C)CC4)CO6)cc3)c(C)c2)no1 [SB224289, 1′-methyl-5-[[2′-methyl-4“-(5-methyl-1,2,4-oxadiazol-3-yl)biphenyl-4-yl]carbonyl]-2,3,6,7-tetrahydro-spiro[furo[2,3-f]indole-3,4-”piperidine]]
effect on Kyn binding to the murine HTR1B receptor (murine HTR1B receptor): no effect | protection of MLL/AF9-injected mice (MLL/AF9 AML cells; SB9 5 mg/kg i.p. daily from 1 week after leukemia injection): only partially protected | survival (MLL/AF9 AML cells; SB9 5 mg/kg i.p. daily versus vehicle): significant increase in survival | bone expression of Cyclins D1, D2, and E1 [4]: upregulated | 5-HT binding to HTR1B at the administered dose (mouse HTR1B): effective in abolishing 5-HT binding to HTR1B

Molecule: NS(=O)(=O)NCCNc1nonc1C(=NO)Nc1ccc(F)c(Br)c1 [epacadostat]
leukemia progression (MLL/AF9 AML cells; epacadostat diet 0.8 g/kg): tendency toward a slower leukemia progression | survival (MLL/AF9 AML cells; epacadostat diet 0.8 g/kg): slight—yet significant—increase in survival | AML burden (MLL/AF9 AML cells; epacadostat diet 1.6 g/kg): significant delay in AML burden | survival (MLL/AF9 AML cells; epacadostat diet 1.6 g/kg, compared with the lower dose): significantly prolonged survival | reduction in serum Kyn levels ([5]; MLL/AF9 mice, epacadostat diet 1.6 g/kg): 35% | reduction in basal (no leukemia) circulating Kyn/Trp levels ([5]; WT mice, epacadostat ad libitum diet 0.8 g/kg): 54% | systemic Kyn/Trp levels in MLL/AF9 leukemic mice ([5]; epacadostat diet 0.8 g/kg): did not reduce the 1.5-fold increase in systemic Kyn/Trp levels | systemic toxicity [6]: did not show any obvious systemic toxicity | G0–G1 and G2–M populations of leukemic blasts [7]: remained unchanged | leukemic blast apoptosis [7]: increased leukemic blast apoptosis | proliferation of leukemic blasts (hCD45+CD33+), in vivo cell cycle [7]: less proliferative | reduction in Kyn/Trp levels in blood ([7]; 12-day regimen): ~20% | reduction in AML BM burden ([7]; versus vehicle): ~20% | effect on leukemic burden in SP relative to BM [2]: more pronounced effect in the SP

Molecule: sgRNA#196: chemically modified mouse sgRNA targeting Ido1 exon 3: CUGCCCACACUGAGCACGGA (chemically modified, pattern not given here)
deletion efficiency (Ido1): ~40%

B1: SAA1: recombinant human acute-phase protein serum amyloid A1 (PeproTech) (protein, UniProt P0DJI8 19-122, looked up)
Serum amyloid A-1 protein: RSFFSFLGEAFDGARDMWRAYSDMREANYIGSDKYFHARGNYDAAKRGPGGAWAAEVITDARENIQRFFGHGAEDSLADQAANEWGRSGKDPNHFRPAGLPEKY
IDO1 upregulation in other cell lines ([8]; Fig. S4O, exposed o/n to SAA1): observed across several human AML cell lines as well as the MDS-L cell line | IDO1 expression in OCI-AML3 cells ([8]; overnight, 50 ng/mL recombinant protein): the only osteoblast-secreted molecule able to upregulate IDO1 expression | Ido1 expression in WEHI-3B cells [9]: able to upregulate Ido1 expression in WEHI-3B cells with a magnitude similar to SAA3 | proliferation of human AML cell lines (THP-1 and OCI-AML3 cells): increased proliferation | IDO1 mRNA levels in patient-derived BM-MNCs [10]: increased | proliferation of lineage-depleted AML and MDS BM-MNCs from patient aspirates [10]: promoted proliferation | IDO1 expression in PDX-isolated human cells [11]: upregulated only in response to SAA1 in the PDX AML-isolated human cells | proliferation of human cells from CD34+ healthy injected mice [11]: unresponsive | proliferation of patient-derived cells from AML-injected mice ([11]; versus vehicle): high proliferative activity | proliferative rate of leukemic blasts (EdU+ cells, S-phase) ([12]; SAA1 100 μg/kg i.v., 2- and 8-day treatments): maintained and prominent increase in the proliferative rate of leukemic blasts | G0–G1 cells of leukemic blasts [12, 14]: decrease | G2–M phase of leukemic blasts [12, 14]: unvarying | increase in AML burden in the BM ([12]; SAA1 i.v., completion of the 8-day treatment): 1.5 fold | AHR target gene expression in human AML and MDS cell lines [13]: upregulated most of the main AHR target genes

B2: SAA3: recombinant mouse SAA3 (Cusabio), murine ortholog of SAA1 (protein, UniProt P04918 19-122, looked up)
Serum amyloid A-3 protein: QRWVQFMKEAGQGSRDMWRAYSDMKKANWKNSDKYFHARGNYDAARRGPGGAWAAKVISDAREAVQKFTGHGAEDSRADQFANEWGRSGKDPNHFRPAGLPKRY
Ido1 expression in WEHI-3B cells [9]: upregulated Ido1 expression | proliferation of mouse AML cell line (WEHI-3B cells): increased proliferation

— publication PMC8983599 (Cancer Discovery, 2022)
